Experimental data: patent publication EP0889898B1, “MORPHOLINYL ANTHRACYCLINE DERIVATIVES” (PHARMACIA & UPJOHN S.p.A., priority 1996, dated 1998)

System: L1210 leukemia cells
Test: In vitro cytotoxic activity, growth inhibition test (colony growth), 48h treatment
Format: cell-based
Details: ratio of IC50 values versus compound 1
Experimental: 3'-Deamino-3",4'-anhydro-[2"(S)-methoxy-3"(R)-hydroxy-4"-morpholinyl]doxorubicin 2a was tested in vitro on L1210 leukemia cells in comparison with 3'-deamino-3'-[2"(S)-methoxy-4"-morpholinyl]doxorubicin (1). The cytotoxic activity is reported as IC50, the concentration inhibiting 50% of colony growth, calculated on concentration response curves. […]

COc1cccc2c1C(=O)c1c(O)c3c(c(O)c1C2=O)CC(O)(C(=O)CO)CC3OC1CC2C(OC3C(OC)OCCN23)C(C)O1 [Compound 2a, 3'-deamino-3"-4'-anhydro-[2"(S)-methoxy-3"(R)-hydroxy-4"-morpholinyl]doxorubicin] was tested, and the “fold more potent than compound 1” value was 2.5x10^3 fold.
